The values below come from patent US20050096327A1, “Novel norepinephrine reuptake inhibitors for the treatment of central nervous system disorders” (priority 2003, published 2005).

Counter-ions that a name gives are not always drawn. Where only a bound is given, the exact number is not on record here.

In data set [1] the target is T1, human norepinephrine transporter (Homo sapiens, UniProt P23975).
T1 construct: host or cells: HEK-293
Nature of the data set: hNET receptor binding ([125I]-RTI-55, membranes of transfected HEK-293 cells). To be noted: 50 pM [125I]-RTI-55, 90 min room temperature; IC50 converted by Cheng-Prusoff. Put shortly: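 Competition binding on membranes from HEK-293 cells transfected with human NET, using 50 pM [125I]-RTI-55 in Krebs-HEPES pH 7.4, drug 10^−5 to 10^−12 M in duplicate, 90 min at room temperature, filtration. Nonspecific binding defined with 10 μM desipramine; IC50 converted to Ki by Cheng-Prusoff.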

Data set [2] deals with T2, human serotonin transporter (Homo sapiens, UniProt P31645).
T2 construct: host or cells: HEK-293
T2 sequence (P31645 whole entry): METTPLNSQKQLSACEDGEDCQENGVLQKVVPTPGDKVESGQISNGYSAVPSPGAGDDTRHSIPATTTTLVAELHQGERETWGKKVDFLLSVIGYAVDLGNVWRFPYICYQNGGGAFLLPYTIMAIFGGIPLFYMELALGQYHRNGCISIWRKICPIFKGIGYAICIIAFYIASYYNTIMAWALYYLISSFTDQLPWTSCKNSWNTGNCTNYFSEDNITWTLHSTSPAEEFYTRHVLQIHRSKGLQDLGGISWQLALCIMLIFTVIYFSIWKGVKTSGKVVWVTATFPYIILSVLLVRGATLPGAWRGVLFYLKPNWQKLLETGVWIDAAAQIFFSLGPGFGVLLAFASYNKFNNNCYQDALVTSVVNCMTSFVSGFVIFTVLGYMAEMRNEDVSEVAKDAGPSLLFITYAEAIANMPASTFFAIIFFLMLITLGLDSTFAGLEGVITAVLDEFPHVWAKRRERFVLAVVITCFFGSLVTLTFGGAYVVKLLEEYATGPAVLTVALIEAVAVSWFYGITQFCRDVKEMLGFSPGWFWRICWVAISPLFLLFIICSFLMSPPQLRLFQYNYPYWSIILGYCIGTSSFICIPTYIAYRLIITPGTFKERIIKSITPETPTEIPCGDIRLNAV
Nature of the data set: hSERT receptor binding ([125I]-RTI-55, membranes of transfected HEK-293 cells). To be noted: 50 pM [125I]-RTI-55, 90 min room temperature; IC50 converted by Cheng-Prusoff. As to the method: Cell pastes of HEK-293 cells transfected with the human serotonin transporter were supplied by the Pfizer Ann Arbor Protein Expression and Production Group. Pellets were resuspended in 400 to 700 mL of Krebs-HEPES assay buffer (25 mM HEPES, 122 mM NaCl, 3 mM KCl, 1.2 mM MgSO4, 1.3 mM CaCl2, and 11 mM glucose, pH 7.4) with a Polytron homogenizer at Setting 7 for 30 seconds. Aliquots of membranes (˜2.5 mg/mL protein) were stored in liquid nitrogen until used.
Assays were set up in FlashPlates pre-coated with 0.1% PEI in a total volume of 250 μL containing: drug (10^−5M to 10^−12M), cell membranes, and 50 pM [^125I]-RTI-55 (Perkin Elmer, NEX-272; specific activity 2200 Ci/mmol). The reaction was incubated and gently agitated for 90 minutes at room temperature, and terminated by removal of assay volume. Plates were covered, and bound [^125I]-RTI-55 was determined using a Wallac Trilux Beta Plate Counter. Test compounds were run in duplicate, and specific binding was defined as the difference between binding in the presence and absence of 10 μM citalopram.
Excel and GraphPad Prism software were used for data calculation and analysis. IC50 values were converted to Ki values using the Cheng-Prusoff equation. The Ki values for the hSERT are reported below in Table 1.

T1 sequence (P23975 whole entry): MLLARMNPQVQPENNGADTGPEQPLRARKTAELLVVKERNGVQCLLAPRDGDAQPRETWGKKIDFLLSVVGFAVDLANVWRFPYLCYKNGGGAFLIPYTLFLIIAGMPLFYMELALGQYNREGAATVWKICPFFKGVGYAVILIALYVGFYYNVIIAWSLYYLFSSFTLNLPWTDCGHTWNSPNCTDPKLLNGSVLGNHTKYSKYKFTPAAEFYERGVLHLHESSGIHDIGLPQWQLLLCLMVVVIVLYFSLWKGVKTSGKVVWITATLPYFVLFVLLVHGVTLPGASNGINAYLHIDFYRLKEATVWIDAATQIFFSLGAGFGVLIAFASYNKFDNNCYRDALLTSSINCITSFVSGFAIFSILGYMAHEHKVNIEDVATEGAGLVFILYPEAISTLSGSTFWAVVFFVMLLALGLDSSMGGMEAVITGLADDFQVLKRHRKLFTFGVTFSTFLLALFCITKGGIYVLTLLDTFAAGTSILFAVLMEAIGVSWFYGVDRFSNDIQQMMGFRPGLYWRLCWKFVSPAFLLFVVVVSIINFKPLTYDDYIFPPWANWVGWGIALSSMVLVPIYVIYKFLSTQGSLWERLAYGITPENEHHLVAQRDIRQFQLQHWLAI

For `COC(=O)C1(c2nc(-c3ccccc3)c3ccccc3n2)CCNCC1.Cl` [Example 50, 4-(4-Phenyl-quinazolin-2-yl)piperidine-4-carboxylic acid methyl ester hydrochloride], the melting point – broadly, the temperature, or range, at which the solid turns liquid – was in the range of 227 to 228 °C. In addition, the affinity in data set [1], expressed as Ki, was 9.8 nM.
`CC(C)c1nc(N2CCNCC2)nc2ccccc12.Cl` [Example 6, 4-Isopropyl-2-piperazin-1-yl-quinazoline hydrochloride] had a melting point of 253 to 254 °C. Besides, in data set [1], the Ki (usually the dissociation constant of the complex between target and ligand, obtained from inhibition or displacement) is 16.5 nM.
`c1ccc(-c2nc(N3CC4CNCC4C3)nc3ccccc23)cc1` (centres unmarked) (as salt: salt) [Example 81, 2-(Hexahydro-pyrrolo[3,4-c]pyrrol-2-yl)-4-phenyl-quinazoline]: the melting point is 267 to 270 °C.
In the case of `Cl.N[C@H]1CCN(c2nc(-c3ccccc3)c3ccccc3n2)C1` [Example 14, (S)-(+)-1-(4-Phenyl-quinazolin-2-yl)-pyrrolidin-3-ylamine hydrochloride], the melting point lay within 274 to 275 °C. Moreover, affinity in data set [1] was put at a Ki of 3.7 nM.
The molecule `CN[C@H]1CCN(c2nc(-c3ccccc3F)c3ccccc3n2)C1` (as salt: hydrochloride) [Example 35, (S)-(+)-1-[4-(2-Fluoro-phenyl)-quinazolin-2-yl]-pyrrolidin-3-yl}-methyl-amine hydrochloride] had a melting point of 257 to 258 °C.
Still for that read-out and setting: as for `Fc1ccc(-c2nc(N3CCNCC3)nc3ccccc23)c(Cl)c1` (as salt: salt) [Example 61, 4-(2-Chloro-4-fluoro-phenyl)-2-piperazin-1-yl-quinazoline], the figure is 248 to 251 °C.
Same read-out and setting: as for `Fc1cccc(F)c1-c1nc(N2CCNCC2)nc2ccccc12` (as salt: hydrochloride) [Example 29, 4-(2,6-Difluoro-phenyl)-2-piperazin-4-yl-quinazoline hydrochloride], the figure is 295 to 297 °C.
On the same count and under the same terms, as for `Cl.c1ccc(-c2nc(C3CCCNC3)nc3ccccc23)cc1` (centres unmarked) (hydrate or solvate), the figure is 231 to 232 °C.
Turning to `CC(C)[C@H]1CNCCN1c1nc(-c2cccc(F)c2F)c2ccccc2n1` [Example 166, S-4-(2,3-Difluoro-phenyl)-2-(2-isopropyl-piperazin-1-yl)-quinazoline], the Ki in data set [1] came out at 79.7 nM; in data set [2], 185 nM.
For `C[C@H]1CNCCN1c1nc(-c2c(F)cccc2F)c2ccc(F)cc2n1` [Example 107, S-4-(2,6-Difluoro-phenyl)-7-fluoro-2-(2-methyl-piperazin-1-yl)-quinazoline], the Ki turned out to be 47.3 nM in data set [1] and 30.8 nM in data set [2].
The corresponding values for `Fc1ccccc1-c1nc(N2CCNCC2)nc2ccc(Cl)cc12` [Example 129, 4-(2-Fluoro-phenyl)-6-chloro-2-piperazin-1-yl-quinazoline] are 25.6 nM and 8.4 nM.
In the same order, the values of `Fc1ccc2nc(N3CCNCC3)nc(-c3cccc(F)c3F)c2c1` [Example 121, 4-(2,3-Difluoro-phenyl)-6-fluoro-2-piperazin-1-yl-quinazoline] are 15.7 nM and 32.5 nM.
The corresponding values for `N[C@@H]1CCN(c2nc(-c3c(F)cccc3F)c3ccc(F)cc3n2)C1` [Example 93, R-1-[4-(2,6-Difluoro-phenyl)-7-fluoro-quinazolin-2-yl]-pyrrolidin-3-ylamine] are 21.9 nM and 50.6 nM.
Consider `Clc1ccc(-c2nc(N3CCNCC3)nc3ccccc23)cc1Cl` [Example 115, 4-(3,4-dichloro-phenyl)-2-piperazin-1-yl-quinazoline], for which the values for the Ki in data set [1] and in data set [2] were 114 nM and 332 nM, respectively.
In the same order, the values of `Fc1ccc2c(-c3ccccc3)nc(N3CCNCC3)nc2c1F` [Example 163, 7,8-Difluoro-4-phenyl-2-piperazin-1-yl-quinazoline] are 12.6 nM and 441 nM.
In the same order, the values of `Fc1ccc(-c2nc(N3CC[C@@H]4CNC[C@@H]43)nc3cc(F)ccc23)c(F)c1` [Example 142, R,R-4-(2,4-Difluoro-phenyl)-7-fluoro-2-(hexahydro-pyrrolo[3,4-b]pyrrol-1-yl)-quinazoline] are 90.6 nM and 91.4 nM.
In the same order, the values of `Fc1ccc2c(-c3cccc(F)c3F)nc(N[C@@H]3CCNC3)nc2c1` [Example 116, R-[4-(2,3-Difluoro-phenyl)-7-fluoro-quinazolin-2-yl]-pyrrolidin-3-yl-amine] are 138 nM and 963 nM.
On to `Fc1ccc(-c2nc(N3CCNCC3)nc3cc(F)ccc23)c(Cl)c1` [Example 134, 4-(2-Chloro-4-fluoro-phenyl)-7-fluoro-2-piperazin-1-yl-quinazoline], for which the Ki in data set [1] is 30.3 nM; in data set [2] it was 62.6 nM.
The corresponding values for `CC(C)[C@H]1CNCCN1c1nc(-c2ccc(F)cc2F)c2ccccc2n1` [Example 167, S-4-(2,4-Difluoro-phenyl)-2-(2-isopropyl-piperazin-1-yl)-quinazoline] are 66.1 nM and 68.8 nM.
In the same order, the values of `Fc1cccc(-c2nc(NC3CCNCC3)nc3ccccc23)c1F` [Example 156, [4-(2,3-Difluoro-phenyl)-quinazolin-2-yl]-piperidin-4-yl-amine] are 221 nM and 6980 nM.
In the same order, the values of `Fc1ccc(-c2nc(N3CCNCC3)nc3ccc(F)cc23)c(F)c1` [Example 122, 4-(2,4-Difluoro-phenyl)-6-fluoro-2-piperazin-1-yl-quinazoline] are 12.1 nM and 15.5 nM.
In the case of `Fc1ccc2c(-c3c(F)cccc3F)nc(N[C@H]3CCNC3)nc2c1` [Example 100, S-[4-(2,6-Difluoro-phenyl)-7-fluoro-quinazolin-2-yl]-pyrrolidin-3-yl-amine], the results for the Ki in data set [1] and in data set [2] were 29.3 nM and 649 nM, respectively.
Consider `C[C@H]1CNCCN1c1nc(-c2ccc(F)cc2F)c2ccccc2n1` [Example 82, S-4-(2,4-Difluoro-phenyl)-2-(2-methyl-piperazin-1-yl)-quinazoline], for which the Ki turned out to be 19.4 nM in data set [1] and 64.1 nM in data set [2].
Consider `Fc1ccc2c(-c3ccc(Cl)cc3Cl)nc(N3CCNCC3)nc2c1` [Example 120, 4-(2,4-Dichloro-phenyl)-7-fluoro-2-piperazin-1-yl-quinazoline], for which the Ki was 95 nM in data set [1] and 34.1 nM in data set [2].
In the case of `Brc1ccc2nc(N3CCNCC3)nc(-c3ccccc3)c2c1` [Example 91, 6-Bromo-4-phenyl-2-piperazin-1-yl-quinazoline], the Ki in data set [1] was found to be 211 nM; in data set [2] it was 31.4 nM.
In the same order, the values of `Fc1ccc2c(-c3c(F)cccc3F)nc(N3CCNCC3)nc2c1` [Example 98, 4-(2,6-Difluoro-phenyl)-7-fluoro-2-piperazin-1-yl-quinazoline] are 20 nM and 32 nM.
On to `Fc1cc(F)cc(-c2nc(N3CCNCC3)nc3ccccc23)c1` [Example 126, 4-(3,5-difluoro-phenyl)-2-piperazin-1-yl-quinazoline], for which the Ki in data set [1] turned out to be 3.7 nM; in data set [2], 107 nM.
On to `C[C@@H]1CN(c2nc(-c3ccccc3)c3ccccc3n2)CCN1` (as salt: salt) [Example 31, (R)-(+)-2-(3-Methyl-piperazin-1-yl)-4-phenyl-quinazoline], for which the melting point fell in the range of 241 to 242 °C.
On to `C[C@H]1CNCCN1c1nc(-c2ccccc2)c2ccc(F)cc2n1` [Example 106, S-′7-Fluoro-2-(2-methyl-piperazin-1-yl)-4-phenyl-quinazoline], for which the figures for the Ki in data set [1] and in data set [2] were 18.3 nM and 49.7 nM, respectively.
In the same order, the values of “S-4-(2,4-Difluoro-phenyl)-7-fluoro-2-(2-methyl-piperazin-1-yl)-quinazoline [Example 139]” are 30.7 nM and 24.9 nM.
In the same order, the values of `NCCCNc1nc(-c2cccc(F)c2F)c2ccccc2n1` [Example 159, N1-[4-(2,3-Difluoro-phenyl)-quinazolin-2-yl]-propane-1,3-diamine] are 123 nM and more than 10000 nM.
In the same order, the values of `C[C@@H]1CNCCN1c1nc(-c2cccc(F)c2F)c2ccc(F)cc2n1` [Example 130, R-4-(2,3-Difluoro-phenyl)-7-fluoro-2-(2-methyl-piperazin-1-yl)-quinazoline] are 24.7 nM and 44.3 nM.
As to `Fc1ccc(-c2nc(NC3CNC3)nc3cc(F)ccc23)c(F)c1` [Example 141, Azetidin-3-yl-[4-(2,4-difluoro-phenyl)-7-fluoro-quinazolin-2-yl]-amine], the Ki in data set [1] was 102 nM; in data set [2], 1920 nM.
Regarding `Fc1cccc(F)c1-c1nc(N[C@H]2CCNC2)nc2ccccc12` [Example 101, S-[4-(2,6-Difluoro-phenyl)-quinazolin-2-yl]-pyrrolidin-3-yl-amine], the figures for the Ki in data set [1] and in data set [2] were 7.5 nM and 4870 nM, respectively.
